{"source": "patent US12629406B2", "about": "“Alterations in endothelin receptors following hemorrhage and resuscitation by centhaquin” (MIDWESTERN UNIVERSITY, priority 2018, dated 2026)", "key": {"[1]": {"details": "cited from earlier work"}, "[2]": {"details": "in vivo; cited from earlier work"}, "[3]": {"test": "Rat hemorrhagic shock, hypertonic saline resuscitation: cardiovascular response (MAP, HR, CO, SVR)", "assay_type": "in vivo", "details": "for heart rate (HR): 60 minutes after resuscitation", "experimental": "Animals. Male Sprague-Dawley rats (340 to 380 g) (Envigo, Indianapolis, IN) were housed for at least 4 days in a room with controlled temperature (23±1° C.), humidity (50±10%) and light (6:00 A.M. to 6:00 P.M.) before being used. Food and water were made available continuously. Animal care and use for experimental procedures were approved by the Institutional Animal Care and Use Committee of the Midwestern University. All anesthetic and surgical procedures were in compliance with the guidelines established by the Animal Care Committee.\nDetermination of cardiovascular response. The animals were anesthetized with urethane dissolved in isotonic saline. Urethane was administered in a dose of 1.5 g per kg body weight via intraperitoneal injection. Urethane was selected as an anesthetic agent, because it produces long lasting (8-10 hours) anesthesia with minimal cardiovascular and respiratory system depression. It produces a level of surgical anesthesia characterized by preservation of cardiovascular reflexes (Maggi and Meli 1986). Briefly, anaesthetized rats were immobilized on a surgical board equipped with controlled heating pad. Blood PO2, Pco2 and pH, were maintained using a tracheotomy cannula connected to a rodent ventilator (Model 683, Harvard Apparatus Inc., Holliston, MA). The right carotid artery was exposed to measure the left ventricular performance. Surgical suture (Deknatel, Research Triangle Park, NC) was secured around the proximal end of the carotid artery and an ultra-miniature pressure-volume (P-V) catheter SPR-869 (Millar Instruments, Houston, TX) was inserted through a tiny incision made near the proximal end of the artery. The P-V terminal of the catheter was connected to MPVS-300 P-V unit through PEC-4D and CEC-4B cables and advanced into the left ventricle to obtain the P-V signals. The signals were continuously aquired (1000 S^−1) using the MPVS-300 P-V unit (AD Instruments, Mountain View, CA, USA) and PowerLab 16/30 data acquisition system (AD Instruments). MAP and HR were measured by cannulating the left femoral artery with pressure catheter SPR-320 (Millar Instruments), connected to the ML221 bridge amplifier (AD Instruments) through AEC-10C connector and the signals were acquired (1000 S^−1) using PowerLab 16/30 data acquisition system (Gulati et al. 2012; Pacher et al. 2008). The left femoral vein was cannulated using PE 50 tubing (Clay Adams, Parsipanny, NJ) and secured for resuscitation.\n(§1) Induction of Hemorrhagic Shock. Hemorrhage was induced by withdrawing blood from the femoral artery at a rate of approximately 0.5 to 1 mL/min until a MAP of 35 mmHg was reached. This MAP was maintained for 30 min by further withdrawal of blood, if necessary. The hemorrhagic shock model used in the present study is a well-established rodent model of manageable pressure hemorrhage (Buehler et al. 2000; Gulati et al. 1997a; Gulati and Sen 1998). The volume of blood loss was about approximately 8.0 ml in each rat and was similar in various groups, amounting to approximately 40% of the total blood. Measured hematocrit levels were similar in various groups. The duration of blood withdrawal was approximately 15 minutes.\nExperimental design. To determine the resuscitative effect of centhaquin on cardiovascular system and plasma cytokines in hemorrhagic shock, rats were randomly divided into five groups, Group 1: Sham control (Non-hemorrhaged) (n=5), Group 2: Hemorrhage with no resuscitation (n=5); Group 3: Hemorrhage followed by resuscitation with 3% hypertonic saline (vehicle) (n=5); Group 4: Hemorrhage followed by resuscitation with vehicle plus centhaquin (0.017 mg/kg) (n=5); and Group 5: Hemorrhage followed by resuscitation with vehicle plus centhaquin (0.05 mg/kg) (n=5). Resuscitation was started 30 min after induction of hemorrhagic shock as an intravenous infusion (1 mL/min) through femoral vein using an infusion pump (Harvard Apparatus Infusion/Withdrawal Pump, Millis, MA). […]"}, "IL-6": {"system": "IL-6", "test": "Plasma IL-6 in hemorrhaged rats (ELISA)", "assay_type": "in vivo, rat", "details": "p<0.01", "experimental": "as §1\n(§2) Experimental design. […] The blood samples, for biochemical estimations, were collected at 30 minutes of resuscitation and cardiovascular parameters were monitored till 60 minutes after which the animal was sacrificed. […]"}, "[4]": {"details": "24 human subjects; cited from earlier work"}, "TNF-α": {"system": "TNF-α", "test": "Plasma TNF-α in hemorrhaged rats (ELISA)", "assay_type": "in vivo, rat", "details": "p<0.01", "experimental": "as §1, §2"}, "IL-10": {"system": "IL-10", "test": "Plasma IL-10 in hemorrhaged rats (ELISA)", "details": "rat, in vivo", "experimental": "as §1, §2"}}, "note": "Read-outs that look alike come from different tables or passages of the source.", "data": [{"smiles": "Cc1cccc(N2CCN(CCc3ccc4ccccc4n3)CC2)c1", "note": "[centhaquin, 2-[2-(4-(3-methyphenyl)-1-piperazinyl)]ethyl-quinoline]", "values": [{"measurement": "survival compared to Lactated Ringer's", "setting": "[1]; 0.015 mg/kg in the fluid resuscitation phase", "result": "significantly better survival"}, {"measurement": "cardiac output (CO)", "setting": "[1]; 0.015 mg/kg", "result": "augments CO"}, {"measurement": "systemic vascular resistance (SVR)", "setting": "[1]; 0.015 mg/kg", "result": "reduces systemic vascular resistance"}, {"measurement": "volume of fluids for resuscitation", "setting": "[1]; 0.015 mg/kg", "result": "requires smaller volume of fluids"}, {"measurement": "half-life", "setting": "[2]", "result": "about one"}, {"measurement": "volume of distribution", "setting": "[2]", "result": "high"}, {"measurement": "cardiac output (CO) compared to hypertonic saline alone", "setting": "[3]; 30 and 60 min post resuscitation", "result": "significantly increased"}, {"measurement": "systemic vascular resistance (SVR)", "setting": "[3]; 30 and 60 minutes of resuscitation, versus post-hemorrhage", "result": "further decreased"}, {"measurement": "heart rate (HR)", "setting": "[3]; centhaquin 0.017 mg/kg", "result": "361±10", "unit": "beats/min"}, {"measurement": "heart rate (HR)", "setting": "[3]; centhaquin 0.05 mg/kg", "result": "363±10", "unit": "beats/min"}, {"measurement": "mean arterial pressure (MAP) post resuscitation", "setting": "[3]; centhaquin 0.017 and 0.05 mg/kg, for at least 60 min, p<0.01", "result": "significant increase"}, {"measurement": "difference in HR following resuscitation", "setting": "[3]; hypertonic saline or centhaquin", "result": "No significant difference"}, {"measurement": "plasma IL-6 level compared to hypertonic saline alone", "setting": "IL-6", "result": "further increased"}, {"measurement": "safety and tolerability", "setting": "[4]", "result": "safe and was well tolerated"}, {"measurement": "plasma TNF-α level compared to hypertonic saline alone", "setting": "TNF-α", "result": "further increased"}, {"measurement": "plasma IL-10, hemorrhagic shock versus resuscitation with hypertonic saline or centhaquin", "setting": "IL-10", "result": "no statistically significant difference"}]}]}
